Assay results as given in patent US12180146B2, “Antihypertensive polyol compound and derivative thereof” (TAO PHARMACEUTICAL (SUZHOU) CO., LTD, priority 2020, dated 2024).

What was measured:
[1] = tested on: monocrotaline-induced pulmonary hypertension model rats (MCT-PAH); experiment: Monocrotaline-induced pulmonary hypertension model rats, oral (gavage) treatment for 21 days; assay type: in vivo, SD rats; details: 100 mg/kg
Text: Monocrotaline (MCT) was subcutaneously injected to establish an animal model of pulmonary hypertension in SD rats. At the same time, compound 1 was given by gavage for treatment. The pulmonary artery hemodynamics and right heart hypertrophy index RVHI of the rates were detected to determine whether the oral administration of compound 1 has effects of improving Monocrotaline induces pulmonary hypertension.
SD rats (purchased from Shanghai Xipuer-Bikai Experimental Animal Co., Ltd.), male, weighing 180-200 g, were bred in an artificially controlled animal room with each 12 hours of light and darkness at a temperature of 20-25° C. and relative humidity of 50-60%, and allowed ad libitum to food and water. The rats were randomly divided into groups according to the experimental requirements, and kept separately in cages, with 3 to 4 rats per cage. All relevant operations of animal experiments are in compliance with the provisions of “Guidelines for the Management and Use of Laboratory Animals” of China.
During the experiment, SD rats were randomly divided into 4 groups: blank control group, pulmonary hypertension model group, Selexipag (1 mg/kg) treatment group and compound 1 (100 mg/kg) group with 6 rats in each group, and the concentration in brackets represents the administration concentration of the compound, in which Selexipag is a new oral long-acting prostacyclin receptor agonist discovered and synthesized by Japan New Drug Co., Ltd. On the first day of the experiment, normal saline was injected subcutaneously into the back of neck of rats in the blank control group, and monocrotaline (Chengdu Purifa Biotechnology Co., Ltd.) solution was injected in the rats in other groups at a dosage of 60 mg/kg. Both the positive drug, Selexipag and Compound 1 were administered by gavage. Selexipag and […] were dissolved in 0.5% CMC-Na solution. The rats were continuously administered for 21 days with a volume of […]. The rats in the control and model groups were given the corresponding volume of CMC-Na solution by gavage. Specific groupings can be found in Table 7.
After the administration, the pulmonary vascular hemodynamics and RVHI was determined according to the same experiment method as that in Example 1.

[2] = tested on: spontaneously hypertensive rats (SHR); experiment: Antihypertensive activity test: blood pressure and heart rate of spontaneously hypertensive rats (SHR); assay type: in vivo, rat; details: 200 mg/kg
Method in brief: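 Spontaneously hypertensive rats received compound at 200 mg/kg. SBP and heart rate were measured before and after dosing. A drop in SBP of ≥20 mmHg from baseline counted as effective, and heart-rate changes were tested by paired t-test (P<0.05).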

[3] = after administration (6 h M ± SD), n = 8
[4] = before administration, M ± SD, n = 8

Compound: CCc1cccc(C(O)CO)c1 (stereo not shown) [Compound 1, 1-(3-ethylphenyl)-1,2-ethylene glycol]
- 2 × MT/ED [1]: 0.27 ± 0.062
- RVHI [1]: 0.31 ± 0.059
- RVSP [1]: 39.72 ± 3.46 mmHg
- mPAP [1]: 9.21 ± 2.69 mmHg
- RVHI ([1]; listed as compound 1, 100 mg/kg): 0.31±0.059
- time after administration of maximum antihypertensive effects [2]: 3 h
- SHR heart rate, time after administration 0 h ([2]; 0 h, N = 8): 356 ± 46.4 beat/min
- Heart rate Difference before and after administration, 1 h ([2]; 1 h): −9 beat/min
- SBP Difference before and after administration, 1 h ([2]; 1 h): 16 mmHg
- SHR heart rate, time after administration 1 h ([2]; 1 h, N = 8): 348 ± 39.3 beat/min
- SHR blood pressure (SBP), time after administration 1 h ([2]; 1 h, n = 8): 176 ± 9.55 mmHg
- Heart rate Difference before and after administration, 2 h ([2]; 2 h): 23 beat/min
- SBP Difference before and after administration, 2 h ([2]; 2 h): 20 mmHg
- SHR heart rate, time after administration 2 h ([2]; 2 h, N = 8): 380 ± 34.1 beat/min
- SHR blood pressure (SBP), time after administration 2 h ([2]; 2 h, n = 8): 172 ± 7.36 mmHg
- Heart rate Difference before and after administration, 3 h ([2]; 3 h): 28 beat/min
- SBP Difference before and after administration, 3 h ([2]; 3 h): 23 mmHg
- SHR heart rate, time after administration 3 h ([2]; 3 h, N = 8): 385 ± 31.5 beat/min
- SHR blood pressure (SBP), time after administration 3 h ([2]; 3 h, n = 8): 169 ± 4.07 mmHg
- Heart rate Difference before and after administration, 4 h ([2]; 4 h): 28 beat/min
- SBP Difference before and after administration, 4 h ([2]; 4 h): 19 mmHg
- SHR heart rate, time after administration 4 h ([2]; 4 h, N = 8): 385 ± 30.4 beat/min
- SHR blood pressure (SBP), time after administration 4 h ([2]; 4 h, n = 8): 173 ± 7.15 mmHg
- Heart rate Difference before and after administration, 5 h ([2]; 5 h): 16 beat/min
- SBP Difference before and after administration, 5 h ([2]; 5 h): 17 mmHg
- SHR heart rate, time after administration 5 h ([2]; 5 h, N = 8): 372 ± 28.5 beat/min
- SHR blood pressure (SBP), time after administration 5 h ([2]; 5 h, n = 8): 175 ± 5.61 mmHg
- Heart rate Difference before and after administration, 6 h ([2]; 6 h): 17 beat/min
- SBP Difference before and after administration, 6 h ([2]; 6 h): 11 mmHg
- SHR heart rate, time after administration 6 h ([2]; 6 h, N = 8): 373 ± 31.3 beat/min
- SHR blood pressure (SBP), time after administration 6 h ([2]; 6 h, n = 8): 180 ± 6.66 mmHg
- Blood pressure (SBP, mmHg) After administration [2, 3]: 174 ± 4.01 mmHg
- Heart rate (beat/min) After administration [2, 3]: 368 ± 25.5 beat/min
- Heart rate Difference (beat/min) ([2]; after administration minus baseline (6 h)): 12 beat/min
- Blood pressure Difference mmHg ([2]; baseline minus after administration (6 h)): 18 mmHg
- Blood pressure (SBP, mmHg) Baseline [2, 4]: 192 ± 7.98 mmHg
- Heart rate (beat/min) Baseline [2, 4]: 356 ± 46.4 beat/min
